The record followed here is patent publication US9187471B2, “Pyrido [4,3-b] indole and pyrido [3,4-b] indole derivatives and methods of use” (Medivation Technologies, Inc., priority 2010, dated 2015).

Assay [1] addresses T1, human recombinant histamine H1 receptor (Homo sapiens, UniProt P35367).
T1 construct: expressed in transfected cells; host or cells: CHO-K1
As to the kind of experiment: Histamine H1 radioligand binding ([3H]Pyrilamine). The conditions noted are these: read-out: Histamine H1 Binding (1 μM), percent inhibition of specific binding; compound at 1 μM; 1.2 nM [3H]Pyrilamine. How it is done: To evaluate in radioligand binding assays the activity of compounds of the invention, human recombinant histamine H1 receptor expressed in Chinese hamster ovary (CHO) K1 cells (De Backer, M. et al, Biochem. Biophys. Res. Comm. 197(3):1601, 1993) in a modified Tris-HCl buffer (50 mM Tris-HCl, pH 7.4, 2 mM MgCl2, 100 mM NaCl, 250 mM Sucrose) was used. […] Non-specific binding was estimated in the presence of 1 μM Pyrilamine. Receptor proteins were filtered and washed, the filters were then counted to determine [^3H]Pyrilamine specifically bound. […] Biochemical assay results are presented as the percent inhibition of specific binding in Table 2.

Assay [2] has as its target T2, rat adrenergic α1A receptor (Rattus norvegicus, UniProt P43140).
T2 construct: rat adrenergic α1A receptor obtained from Wistar Rat submaxillary glands; from tissue; host or cells: Wistar rat submaxillary glands
T2 sequence (P43140 1-466): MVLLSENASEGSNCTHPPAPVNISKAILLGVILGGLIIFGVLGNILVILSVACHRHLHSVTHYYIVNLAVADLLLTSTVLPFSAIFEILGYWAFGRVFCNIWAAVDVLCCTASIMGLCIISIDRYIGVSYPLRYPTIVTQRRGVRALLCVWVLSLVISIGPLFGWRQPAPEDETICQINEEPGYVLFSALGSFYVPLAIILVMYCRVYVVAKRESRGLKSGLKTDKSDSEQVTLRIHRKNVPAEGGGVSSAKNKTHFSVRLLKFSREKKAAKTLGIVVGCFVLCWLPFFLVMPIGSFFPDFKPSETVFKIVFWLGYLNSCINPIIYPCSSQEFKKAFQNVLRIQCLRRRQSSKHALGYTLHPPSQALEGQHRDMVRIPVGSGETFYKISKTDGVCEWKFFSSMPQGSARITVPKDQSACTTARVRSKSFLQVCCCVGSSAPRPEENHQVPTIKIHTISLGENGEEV
As to the kind of experiment: Adrenergic α1A radioligand binding ([3H]Prazosin). The conditions noted are these: read-out: Adrenergic (0.1 μM) a1A, percent inhibition of specific binding; compound at 0.1 μM; 0.25 nM [3H]Prazosin. How it is done:
To evaluate in radioligand binding assays the activity of compounds of the invention, rat adrenergic α1A receptor obtained from Wistar Rat submaxillary glands (Michel, A. et al, Br. J. Pharmacol. 98:883, 1989) in a modified Tris-HCl buffer (50 mM Tris-HCl buffer, pH 7.4, 0.5 mM EDTA) was used. Compounds of the invention were incubated with 0.25 nM [^3H]Prazosin for 60 min at 25° C. Non-specific binding was estimated in the presence of 10 μM phentolamine Receptor proteins were filtered and washed, the filters were then counted to determine [^3H]Prazosin specifically bound. […] Compounds of the invention were tested in this biochemical assay and percent inhibition of specific binding was determined.

The target in assay [3] is T3, human recombinant adrenergic α2C receptor (Homo sapiens, UniProt P18825).
T3 construct: expressed in transfected cells; host or cells: insect Sf9 cells
T3 sequence (P18825 1-462): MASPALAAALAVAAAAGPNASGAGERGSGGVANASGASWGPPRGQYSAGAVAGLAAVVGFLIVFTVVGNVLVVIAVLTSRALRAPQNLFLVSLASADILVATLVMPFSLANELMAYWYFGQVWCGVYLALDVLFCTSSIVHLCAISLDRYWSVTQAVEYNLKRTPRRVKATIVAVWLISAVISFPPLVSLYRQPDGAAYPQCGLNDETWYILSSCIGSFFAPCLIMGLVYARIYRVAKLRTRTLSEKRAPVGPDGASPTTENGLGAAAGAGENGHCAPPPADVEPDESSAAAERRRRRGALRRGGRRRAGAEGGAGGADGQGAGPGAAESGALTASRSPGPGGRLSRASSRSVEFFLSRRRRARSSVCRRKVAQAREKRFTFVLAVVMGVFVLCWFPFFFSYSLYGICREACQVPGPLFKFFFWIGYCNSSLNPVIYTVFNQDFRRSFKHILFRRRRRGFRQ
Description: Adrenergic α2C radioligand binding ([3H]MK-912). The conditions noted are these: read-out: Adrenergic (0.1 μM) a2C, percent inhibition of specific binding; compound at 0.1 μM; 1 nM [3H]MK-912. The procedure:
To evaluate in radioligand binding assays the activity of compounds of the invention, human recombinant adrenergic α2C receptor expressed in insect Sf9 cells (Uhlen, S. et al, J. Pharmacol. Exp. Ther. 271:1558, 1994) in a modified Tris-HCl buffer (50 mM Tris-HCl, pH 7.4, 12.5 mM MgCl2, 2 mM EDTA) was used. Compounds of the invention were incubated with 1 nM [^3H]MK-912 for 60 min at 25° C. Non-specific binding was estimated in the presence of 10 μM WB-4101. Receptor proteins were filtered and washed, the filters were then counted to determine [^3H]MK-912 specifically bound. […] Compounds of the invention were tested in this biochemical assay and percent inhibition of specific binding was determined.

Assay [4] addresses T4, human recombinant dopamine D2L receptor (Homo sapiens, UniProt P14416).
T4 construct: expressed in transfected cells; host or cells: CHO
Description: Dopamine D2L radioligand binding ([3H]Spiperone). Conditions: 0.16 nM [3H]Spiperone; for inhibition at 1 µM: read-out: Dopamine D2L (1 μM), percent inhibition of specific binding, compound at 1 μM. How it is done:
Non-specific binding was estimated in the presence of 10 μM Haloperidol. Receptor proteins were filtered and washed, the filters were then counted to determine [^3H]Spiperone specifically bound.

Assay [5] concerns the target T5, human recombinant serotonin (5-Hydroxytryptamine) 5-HT2A receptor (Homo sapiens, UniProt P28223).
T5 construct: expressed in transfected cells; host or cells: CHO-K1
As to the kind of experiment: Serotonin 5-HT2A radioligand binding ([3H]Ketanserin). The conditions noted are these: read-out: Inhibition of ligand binding, Serotonin 5-HT2A (percent inhibition of specific binding). How it is done: Compounds of the invention were incubated with 0.5 nM [^3H]Ketanserin for 60 min at 25° C. Non-specific binding was estimated in the presence of 1 μM Mianserin. Receptor proteins were filtered and washed, the filters were then counted to determine [^3H]Ketanserin specifically bound.

The target of assay [6] is T6, human recombinant serotonin (5-Hydroxytryptamine) 5-HT2C receptor (Homo sapiens, UniProt P28335).
T6 construct: expressed in transfected cells; host or cells: CHO-K1
T6 sequence (P28335 33-458): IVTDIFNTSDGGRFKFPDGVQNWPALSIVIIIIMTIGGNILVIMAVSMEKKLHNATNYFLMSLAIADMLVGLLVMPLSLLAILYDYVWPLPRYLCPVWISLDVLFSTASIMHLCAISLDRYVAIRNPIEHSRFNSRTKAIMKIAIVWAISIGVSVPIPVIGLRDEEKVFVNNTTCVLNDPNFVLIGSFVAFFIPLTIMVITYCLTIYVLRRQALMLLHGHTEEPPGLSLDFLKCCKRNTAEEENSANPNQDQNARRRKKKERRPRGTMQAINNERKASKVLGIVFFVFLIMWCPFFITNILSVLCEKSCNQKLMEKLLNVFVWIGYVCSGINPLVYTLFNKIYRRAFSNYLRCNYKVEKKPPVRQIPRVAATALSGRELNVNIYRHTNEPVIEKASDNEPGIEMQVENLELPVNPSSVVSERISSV
Description: Serotonin 5-HT2C radioligand binding ([3H]Mesulergine). The conditions noted are these: compound at 0.1 μM; read-out: Inhibition of ligand binding, Serotonin 5-HT2C (percent inhibition of specific binding). How it is done: Compounds of the invention were incubated with 1 nM [^3H]Mesulergine for 60 min at 25° C. Non-specific binding was estimated in the presence of 1 μM Mianserin. Receptor proteins were filtered and washed, the filters were then counted to determine [^3H]Mesulergine specifically bound.

Assay [7] has as its target T7, human recombinant serotonin (5-Hydroxytryptamine) 5-HT5A receptor (Homo sapiens, UniProt P47898).
T7 construct: expressed in transfected cells; host or cells: CHO-K1
Description: Serotonin 5-HT5A radioligand binding ([3H]LSD). Conditions: compound at 0.1 μM. How it is done: Compounds of the invention were incubated with 1.7 nM [^3H]Lysergic acid diethylamide (LSD) for 60 min at 37° C. […] Receptor proteins were filtered and washed, the filters were counted to determine [^3H]LSD specifically bound.

Assay [8] has as its target T8, human recombinant serotonin (5-Hydroxytryptamine) 5-HT6 receptor (Homo sapiens, UniProt P50406).
T8 construct: expressed in transfected cells; host or cells: HeLa
Description: Serotonin 5-HT6 radioligand binding ([3H]LSD). The conditions noted are these: compound at 0.1 μM; for inhibition at 0.1 µM: read-out: Inhibition of ligand binding, Serotonin 5-HT6 (percent inhibition of specific binding). An excerpt: Receptor proteins were filtered and washed, the filters were then counted to determine [3H]LSD specifically bound.

Assay [9] has as its target T9, human recombinant serotonin (5-Hydroxytryptamine) 5-HT7 receptor (Homo sapiens, UniProt P34969).
T9 construct: expressed in transfected cells; host or cells: CHO
As to the kind of experiment: Serotonin 5-HT7 radioligand binding ([3H]LSD). Conditions: compound at 0.1 μM; for inhibition at 0.1 µM: read-out: Inhibition of ligand binding, Serotonin 5-HT7 (percent inhibition of specific binding). The procedure: Lysergic acid diethylamide (LSD) for 120 min. at 25° C. […] Receptor proteins were filtered and washed, the filters were then counted to determine [^3H]LSD specifically bound.

Where two headings read alike, the source gives them in different places.

T8 sequence (P50406 whole entry): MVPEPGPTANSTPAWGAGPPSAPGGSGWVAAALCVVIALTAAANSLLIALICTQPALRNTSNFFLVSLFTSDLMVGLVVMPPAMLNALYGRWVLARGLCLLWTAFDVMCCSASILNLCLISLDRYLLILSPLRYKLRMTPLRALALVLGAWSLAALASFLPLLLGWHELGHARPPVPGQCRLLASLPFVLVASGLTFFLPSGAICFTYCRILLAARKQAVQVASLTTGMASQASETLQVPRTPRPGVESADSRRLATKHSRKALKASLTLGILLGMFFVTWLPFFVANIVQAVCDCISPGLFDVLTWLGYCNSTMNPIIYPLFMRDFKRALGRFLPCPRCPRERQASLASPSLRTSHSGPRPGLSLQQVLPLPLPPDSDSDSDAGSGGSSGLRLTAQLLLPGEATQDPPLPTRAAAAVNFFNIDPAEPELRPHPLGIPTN
T9 sequence (P34969 whole entry): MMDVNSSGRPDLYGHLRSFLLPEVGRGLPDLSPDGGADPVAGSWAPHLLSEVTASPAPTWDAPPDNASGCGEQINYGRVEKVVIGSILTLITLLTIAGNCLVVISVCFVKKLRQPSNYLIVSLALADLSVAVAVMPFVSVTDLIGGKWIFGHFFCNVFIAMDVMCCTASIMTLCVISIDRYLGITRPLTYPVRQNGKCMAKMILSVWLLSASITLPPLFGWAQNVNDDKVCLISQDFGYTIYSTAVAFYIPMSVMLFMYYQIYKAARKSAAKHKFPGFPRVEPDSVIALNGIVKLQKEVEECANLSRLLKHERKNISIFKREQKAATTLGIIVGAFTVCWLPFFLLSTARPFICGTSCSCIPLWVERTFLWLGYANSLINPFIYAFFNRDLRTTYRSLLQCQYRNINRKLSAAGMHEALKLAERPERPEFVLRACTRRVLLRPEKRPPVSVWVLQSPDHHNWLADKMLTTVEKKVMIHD
T1 sequence (P35367 whole entry): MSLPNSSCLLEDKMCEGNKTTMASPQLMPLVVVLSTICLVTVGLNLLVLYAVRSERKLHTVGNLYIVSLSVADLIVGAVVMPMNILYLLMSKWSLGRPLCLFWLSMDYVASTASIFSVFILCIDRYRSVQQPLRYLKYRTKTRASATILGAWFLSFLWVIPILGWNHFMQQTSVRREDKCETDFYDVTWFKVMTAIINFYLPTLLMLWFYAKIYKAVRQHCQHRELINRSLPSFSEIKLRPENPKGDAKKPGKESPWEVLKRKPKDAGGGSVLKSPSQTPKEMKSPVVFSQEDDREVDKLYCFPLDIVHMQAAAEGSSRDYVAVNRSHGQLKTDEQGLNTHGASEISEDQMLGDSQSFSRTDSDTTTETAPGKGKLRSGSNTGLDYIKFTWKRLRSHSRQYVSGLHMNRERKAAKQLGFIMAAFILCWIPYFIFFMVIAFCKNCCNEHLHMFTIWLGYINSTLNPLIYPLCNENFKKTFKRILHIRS
T5 sequence (P28223 whole entry): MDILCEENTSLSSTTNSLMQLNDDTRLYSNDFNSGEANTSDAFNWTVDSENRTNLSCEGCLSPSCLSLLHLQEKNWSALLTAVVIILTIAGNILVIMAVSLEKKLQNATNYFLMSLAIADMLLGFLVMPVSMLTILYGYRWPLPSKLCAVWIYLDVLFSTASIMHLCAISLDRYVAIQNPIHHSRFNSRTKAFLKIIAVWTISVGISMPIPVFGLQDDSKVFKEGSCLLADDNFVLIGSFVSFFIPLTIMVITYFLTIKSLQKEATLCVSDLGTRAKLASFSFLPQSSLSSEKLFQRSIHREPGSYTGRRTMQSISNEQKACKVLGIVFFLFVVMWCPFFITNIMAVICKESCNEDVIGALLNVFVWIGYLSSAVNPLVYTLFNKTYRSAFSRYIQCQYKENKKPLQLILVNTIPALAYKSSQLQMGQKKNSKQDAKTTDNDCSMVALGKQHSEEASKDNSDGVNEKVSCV
T4 sequence (P14416 whole entry): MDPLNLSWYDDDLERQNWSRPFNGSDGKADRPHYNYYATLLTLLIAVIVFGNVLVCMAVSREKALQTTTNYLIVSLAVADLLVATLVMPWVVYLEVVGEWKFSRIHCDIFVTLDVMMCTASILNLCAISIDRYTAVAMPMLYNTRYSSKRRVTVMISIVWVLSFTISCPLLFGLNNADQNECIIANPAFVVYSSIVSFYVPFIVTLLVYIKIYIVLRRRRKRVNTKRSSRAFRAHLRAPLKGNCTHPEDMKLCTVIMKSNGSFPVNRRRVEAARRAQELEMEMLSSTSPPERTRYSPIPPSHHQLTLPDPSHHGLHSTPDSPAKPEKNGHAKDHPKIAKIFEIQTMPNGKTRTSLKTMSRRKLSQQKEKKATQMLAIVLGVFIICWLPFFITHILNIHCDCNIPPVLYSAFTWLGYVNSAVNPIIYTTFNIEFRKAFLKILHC
T7 sequence (P47898 whole entry): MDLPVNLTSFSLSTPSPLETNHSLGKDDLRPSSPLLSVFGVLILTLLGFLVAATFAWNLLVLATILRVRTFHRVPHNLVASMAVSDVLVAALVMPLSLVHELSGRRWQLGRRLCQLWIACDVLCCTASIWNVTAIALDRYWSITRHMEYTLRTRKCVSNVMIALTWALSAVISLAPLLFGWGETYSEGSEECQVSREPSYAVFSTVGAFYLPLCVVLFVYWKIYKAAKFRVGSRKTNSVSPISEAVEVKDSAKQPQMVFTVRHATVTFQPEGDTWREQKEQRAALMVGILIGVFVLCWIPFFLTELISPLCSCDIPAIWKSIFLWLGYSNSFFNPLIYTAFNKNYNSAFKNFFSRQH

As usually defined, the inhibition is the change of the read-out against control, counted positive when it falls. For `Cc1ccc2c(c1)c1c(n2-c2ccccc2-c2ccc(O)nc2)CCN(C)C1` [Compound No. 80, 5-(2-(2,8-dimethyl-3,4-dihydro-1H-pyrido[4,3-b]indol-5(2H)-yl)phenyl)pyridin-2-ol], the inhibition at 1 µM in assay [1] amounted to 28%; in [4], 2%. For the same molecule, the inhibition at 0.1 µM was 15% in [2], -6% in [3], 28% in [5] and 11% in [6]. Further, the “Inhibition of ligand binding, Serotonin 5-HT5A (percent inhibition of specific binding)” value in assay [7] is recorded as 25%. Also, the “Inhibition of ligand binding, Serotonin 5-HT6 (percent inhibition of specific binding)” value in [8] is recorded as −1%. The “Inhibition of ligand binding, Serotonin 5-HT7 (percent inhibition of specific binding)” value in [9] is given as 41%.
As to `Cc1ccc2c(c1)c1c(n2-c2ccsc2)CCN(C)C1` [Compound 14, 2,8-dimethyl-5-thiophen-3-yl-2,3,4,5-tetrahydro-1H-pyrido[4,3-b]indole], the inhibition at 1 µM turned out to be 86% in [1] and 50% in assay [4]. Moreover, the inhibition at 0.1 µM in [2] amounted to 30%; in [3] it was 4%; in assay [5] (compound at 0.1 μM), 97%; in [6], 95%; in assay [8], 82%; in assay [9] it was 61%.
On to `Cc1cc(C)c2c(c1)c1c(n2-c2cscc2-c2ccncc2)CCN(C)C1` [Compound No. 149], for which, in assay [1], the inhibition at 1 µM is -5%. Further, the inhibition at 0.1 µM in [2] was 14%; in [3], 2%; in assay [4] (read-out: Dopamine D2L (0.1 μM), percent inhibition of specific binding, compound at 0.1 μM), 5%; in assay [5] (compound at 0.1 μM) it was 45%; in [7] (read-out: Inhibition of ligand binding, Serotonin 5-HT5A (percent inhibition of specific binding)), -13%; in assay [8], 93%. For the same molecule, the inhibition at 0.1 µM in assay [9] was found to be 11%.
Turning to `Cc1ccc2c(c1)c1c(n2-c2ccoc2)CCN(C)C1` [Compound 15, 5-furan-3-yl-2,8-dimethyl-2,3,4,5-tetrahydro-1H-pyrido[4,3-b]indole], the inhibition at 1 µM in [1] was 80%; in [4], 19%. The inhibition at 0.1 µM worked out at 28% in assay [2]; 7% in assay [3]; 72% in [5] (compound at 0.1 μM); 77% in assay [6]; 51% in assay [8]; 57% in assay [9].
As to `Cc1ccc2c(c1)c1c(n2-c2cccs2)CCN(C)C1` [Compound 16, 2,8-dimethyl-5-thiophen-2-yl-2,3,4,5-tetrahydro-1H-pyrido[4,3-b]indole], the values for the inhibition at 1 µM in assay [1] and in assay [4] were 86% and 49%, respectively. Further, the inhibition at 0.1 µM in assay [2] stood at 7%; in assay [3] it was 17%; in [5] (compound at 0.1 μM), 94%; in assay [6] it was 89%; in assay [8], 74%; in assay [9], 62%.
